Test results reported in publication PMC8966651, “PKPD Modeling of the Inoculum Effect of Acinetobacter baumannii on Polymyxin B in vivo” (Frontiers in Pharmacology, 2022).
Structures can show the parent of a compound that is named as a salt. Bridge positions count the residues as written; N and C are the ends. Square brackets hold non-standard residues; d marks the D form. Peptide text beside a SMILES is read from it. * marks the point of attachment. X1 = CC[C@H](C)CCCCC(=O)*; Dab = NCC[C@H](N)C(=O)O

Key:
A. baumannii (CS01) = assay: In vivo PKPD model of PMB bactericidal effect and inoculum effect; set-up: species or system Acinetobacter baumannii; conditions: for mean IK-HL (initial killing half-life): mean over PMB concentrations; for kslope (kill rate constant due to PMB): model predicted
Excerpt: A PKPD model was developed in two steps to quantify the exposure-effect relationship of PMB in infected mice. First, time courses of total and unbound PMB concentrations were modeled and then, PK parameters were fixed during development of the PD part of the PKPD model.
The structural model for the bacterial population included one compartment representing drug-susceptible growing bacteria. A logistic function was used to model the self-limiting growth observed in vivo: dB/dt= knet×(1−B/Bmax)×B (1) Where, B (CFU/thigh) is the drug-susceptible bacterial population, knet (h^−1) is the apparent (net) growth rate constant and Bmax (CFU/thigh) the maximum bacterial count reached in the tissue. The residual error was additive on a log10 scale for bacterial counts (log10 CFU/thigh).
Predicted unbound plasma concentrations were linked to the bacterial sub-model using a mathematical function to characterize PMB antimicrobial effect (kPMB) such as: dB/dt= knet×(1−B/Bmax)×B − kPMB×B (2) Where multiple functions (linear, power, basic Emax or a sigmoidal Emax function) for kPMB were tested.
Empirical mathematical functions (i.e. linear, exponential and power) describing the relationship between kPMB and inoculum size were tested as a way to include the impact of inoculum size on PMB bactericidal activity.”
Model selection was based on objective function value (OFV) and goodness of fit (GOF) plots. When two models were nested, a decrease in OFV of at least 3.84 (chi square 1df p = 0.05) was needed to select the most complex model. Visual predictive checks (VPCs) based on 1,000 simulations were drawn after stratification on the PMB dose and the starting inoculum to evaluate the predictive performance of the model and were taken into account for model selection. Data below the LOQ were taken into account during parameter estimation by applying Beal’s M3 method ([Beal, 2001]). Parameter estimation was performed using NONMEM software (ICON, Dublin, Ireland) version 7.4.2 using the LAPLACIAN algorithm. Uncertainty around population parameters was estimated using the sampling importance resampling (SIR) technique ([Dosne et al., 2016]).
To evaluate the impact of outliers on parameter estimates and model-based inferences, a sensitivity analysis was performed. Briefly, model estimation was performed with the complete dataset and with a reduced dataset excluding outliers. Parameter estimates were compared and simulations of expected bacterial counts for all tested experimental conditions (i.e. all inocula and dosing regimens) were performed with the two parameter estimate sets.
The time course of bacterial counts was adequately described by the model depicted on Figure 1. VPCs of the final model are shown on Figure 3 and GOF plots on Supplementary Figure S4. PMB bactericidal effect (kPMB) was best described by a power function: kPMB = kslope × Cuγ (5) Where kslope corresponds to the kill rate constant due to PMB (L/mg.h), Cu the unbound PMB concentration (mg/L) and γ , the power parameter for PMB effect.
The inoculum effect was incorporated in the model as a decrease of kslope with increasing theoretical starting inoculum using a linear function: kslope=kslope,med +kinoc×(starting inoculum−6) (6) Where kslope,med is the kill rate constant for a theoretical starting inoculum of 6 log10 CFU/thigh corresponding to the median of the starting inoculum tested in the present study (5, 6 or 7 log10 CFU/thigh) and kinoc is the constant describing the inoculum effect on kslope.

[1] = SC, highest dose 32 mg/kg; ref Landersdorfer et al., 2018; cited from earlier work
Procedure: These new study results can be compared with those previously obtained in relatively similar conditions, at least from PK standpoint ([Landersdorfer et al., 2018]). In both studies PMB was administered subcutaneously to neutropenic mice infected with K. pneumoniae ([Landersdorfer et al., 2018]) or A. baumannii, leading to saturable absorption rate. However although Landersdorfer et al. used a model with parallel linear and saturable absorption, an Emax model was sufficient to provide satisfactory fit of our data. Noticeably, while this nonlinear absorption was important to consider for PK and ...

[2] = PMB plasma protein binding by ultrafiltration (Centrifree) of plasma from infected mice; type: in vitro ADME; conditions: mouse plasma
Procedure: The PK of PMB was determined in neutropenic mice infected with the bacterial inoculum size of 10^6 CFU/thigh (n = 56). Mice were anesthetized by isoflurane (AbbVie, Rungis, France) inhalation (3%) for 5 min at each sampling time. Blood samples were collected by intracardiac puncture into heparinized tubes up to 24 h after PMB administration for a total of 7 time points per dose level (n = 3 animals per time point). Plasma was separated from the whole blood after centrifugation at 4,000 rpm for 10 min at 4°C and divided into two samples. The first sample was used to determine total PMB concentrations and the second one (0.15 ml) was ultrafiltered (4000 rpm for 30 min at room temperature) using Centrifree® ultrafiltration devices from Millipore (Merck KGaA) to determine unbound PMB concentrations and consequently protein binding. The non-specific binding of PMB to the membrane of the Centrifree® ultrafiltration devices ([Sader et al., 2012]) was determined by ultrafiltration of PMB solutions in phosphate buffer (pH7.2) at concentrations ranging from 0.2 to 7.5 mg/L and was used to correct ultrafiltrate concentrations. Plasma samples and ultrafiltrates were stored at −20°C until further analysis. Total and unbound PMB concentrations were determined by a liquid chromatography tandem mass spectrometry (LS-MS/MS) method (Supplemental Material).
A saturable non-specific binding (NSB) of PMB to the ultrafiltration membrane, translating to a non-linear decrease of PMB NSB when PMB concentration increased, was observed (Supplementary Figure S1) and could be described by the following equation: NSB = 0.47−0.16×ln(UF) (3) Where NSB corresponds to the non-specific binding (%) and UF to PMB concentrations in ultrafiltrates (mg/L). Equation 3 was used to correct ultrafiltrates concentrations, as follows: Unbound concentrations = UF/1−NSB (4)

Compound: CC[C@H](C)CCCCC(=O)N[C@@H](CCN)C(=O)N[C@H](C(=O)N[C@@H](CCN)C(=O)N[C@H]1CCNC(=O)[C@H]([C@@H](C)O)NC(=O)[C@H](CCN)NC(=O)[C@H](CCN)NC(=O)[C@H](CC(C)C)NC(=O)[C@@H](Cc2ccccc2)NC(=O)[C@H](CCN)NC1=O)[C@@H](C)O [PMB, Polymyxin B sulfate] (X1-[Dab]T[Dab][Dab][Dab][dF]L[Dab][Dab]T; lactam 4-C)
- mean IK-HL higher at 10^7 CFU/thigh compared with 10^5 CFU/thigh inoculum (A. baumannii (CS01); in vivo): 48%
- mean IK-HL (initial killing half-life) (A. baumannii (CS01); in vivo, inoculum 10^5 CFU/thigh): 32.4 min
- mean IK-HL (initial killing half-life) (A. baumannii (CS01); in vivo, inoculum 10^7 CFU/thigh): 48 min
- kslope (kill rate constant due to PMB) (A. baumannii (CS01); starting inoculum 5 log10 CFU/thigh): 19800 µL/min/mg
- kslope (kill rate constant due to PMB) (A. baumannii (CS01); starting inoculum 7 log10 CFU/thigh): 13500 µL/min/mg
- decrease in the in vivo PMB bactericidal effect (A. baumannii (CS01); starting inoculum increases from 10^5 to 10^7 CFU/thigh): 32%
- change of kslope (A. baumannii (CS01); starting inoculum increasing from 5 to 7 log10 CFU/thigh): −32%
- Model derived initial killing half-life (A. baumannii (CS01); unbound PMB 0.5 mg/L, inoculum 10^5 CFU/thigh): 39 min
- Model derived initial killing half-life (A. baumannii (CS01); unbound PMB 0.5 mg/L, inoculum 10^6 CFU/thigh): 47 min
- Model derived initial killing half-life (A. baumannii (CS01); unbound PMB 0.5 mg/L, inoculum 10^7 CFU/thigh): 58 min
- Model derived initial killing half-life (A. baumannii (CS01); unbound PMB 1 mg/L, inoculum 10^5 CFU/thigh): 35 min
- Model derived initial killing half-life (A. baumannii (CS01); unbound PMB 1 mg/L, inoculum 10^6 CFU/thigh): 42 min
- Model derived initial killing half-life (A. baumannii (CS01); unbound PMB 1 mg/L, inoculum 10^7 CFU/thigh): 52 min
- Model derived initial killing half-life (A. baumannii (CS01); unbound PMB 2 mg/L, inoculum 10^5 CFU/thigh): 31 min
- Model derived initial killing half-life (A. baumannii (CS01); unbound PMB 2 mg/L, inoculum 10^6 CFU/thigh): 37 min
- Model derived initial killing half-life (A. baumannii (CS01); unbound PMB 2 mg/L, inoculum 10^7 CFU/thigh): 46 min
- Model derived initial killing half-life (A. baumannii (CS01); unbound PMB 3 mg/L, inoculum 10^5 CFU/thigh): 29 min
- Model derived initial killing half-life (A. baumannii (CS01); unbound PMB 3 mg/L, inoculum 10^6 CFU/thigh): 35 min
- Model derived initial killing half-life (A. baumannii (CS01); unbound PMB 3 mg/L, inoculum 10^7 CFU/thigh): 43 min
- Model derived initial killing half-life (A. baumannii (CS01); unbound PMB 4 mg/L, inoculum 10^5 CFU/thigh): 28 min
- Model derived initial killing half-life (A. baumannii (CS01); unbound PMB 4 mg/L, inoculum 10^6 CFU/thigh): 33 min
- Model derived initial killing half-life (A. baumannii (CS01); unbound PMB 4 mg/L, inoculum 10^7 CFU/thigh): 41 min
- peak concentrations at the highest dose [1]: ~20 mg/L
- fraction unbound ([2]; male, Swiss RjOrl, sc, infected mice, ultrafiltration 4000 rpm 30 min room temperature, corrected for non-specific binding to membrane, LC-MS/MS, model estimate (%RSE)): 0.166
- unbound fraction ([2]; infected mice, ultrafiltration corrected for non-specific binding, model estimate): 17%
- plasma protein binding ([2]; ultrafiltration, this study): ~80%
